From patent publication US11078206B2, “Amino-fluoropiperidine derivatives as kinase inhibitor” (Daewoong Pharmaceutical Co., Ltd., priority 2017, dated 2021)
pIC50: −log10 of the molar value.

What was measured:
[1] = tested on: JAK3 kinase (STAT5 phosphorylation induced by IL-2 in HT-2 cells); assay: JAK3-mediated cell assay (HT-2/IL-2 assay), STAT5 phosphorylation; format: cell-based; conditions: HT2, compound 30 minutes, IL-2 20 ng/ml 10 minutes, HTRF phospho-STAT5 (Tyr694)
Description: The inhibitory activities against JAK3 kinase at the cellular level were measured for the compounds prepared in the Examples through in vitro analysis of STAT5 phosphorylation induced by IL-2 stimulation in HT-2 cells. Specifically, STAT5 phosphorylation was analyzed using HTRF®phospho-STAT5 (Tyr694) assay kit (Cisbio, 64AT5PEG), which was purchased from Cisbio. HT-2 cells were cultured for 2 hours in growth factor-free medium. The cultured HT-2 cells were dispensed into 96-well plates by 50 ul so as to be a density of 2.5×10^5 cells/well. The compounds prepared in the previous Examples were prepared so as to be finally a 0.3% DMSO aqueous solution, and HT-2 cells was treated with the compounds for 30 minutes. After the compound treatment, IL-2 was prepared so as to be finally a concentration of 20 ng/ml, and HT-2 cells was treated for 10 minutes. The cells were then disrupted by treating lysis buffers for 30 minutes. The level of STAT5 phosphorylation was measured according to the instructions of HTRF® phospho-STAT5 assay kit, and the inhibitory activity of the compounds according to the invention was calculated. For the analysis of the results of each compound, Microsoft Excel was used, and IC50 values were calculated by SigmaPlot software.

[2] = target: Recombinant purified human JAK3 (Homo sapiens (Human), UniProt P52333); assay: JAK3 kinase inhibitory activity (ADP Glo assay); conditions: read-out: JAK3 IC50, ATP 5 uM, 1 hour 30° C.
[3] = target: Recombinant purified human BTK (Homo sapiens (Human), UniProt Q06187); assay: BTK kinase inhibitory activity (ADP Glo assay); conditions: read-out: BTK IC50, ATP 10 uM, 1 hour 30° C.
Chain of Recombinant purified human BTK (Q06187 whole entry): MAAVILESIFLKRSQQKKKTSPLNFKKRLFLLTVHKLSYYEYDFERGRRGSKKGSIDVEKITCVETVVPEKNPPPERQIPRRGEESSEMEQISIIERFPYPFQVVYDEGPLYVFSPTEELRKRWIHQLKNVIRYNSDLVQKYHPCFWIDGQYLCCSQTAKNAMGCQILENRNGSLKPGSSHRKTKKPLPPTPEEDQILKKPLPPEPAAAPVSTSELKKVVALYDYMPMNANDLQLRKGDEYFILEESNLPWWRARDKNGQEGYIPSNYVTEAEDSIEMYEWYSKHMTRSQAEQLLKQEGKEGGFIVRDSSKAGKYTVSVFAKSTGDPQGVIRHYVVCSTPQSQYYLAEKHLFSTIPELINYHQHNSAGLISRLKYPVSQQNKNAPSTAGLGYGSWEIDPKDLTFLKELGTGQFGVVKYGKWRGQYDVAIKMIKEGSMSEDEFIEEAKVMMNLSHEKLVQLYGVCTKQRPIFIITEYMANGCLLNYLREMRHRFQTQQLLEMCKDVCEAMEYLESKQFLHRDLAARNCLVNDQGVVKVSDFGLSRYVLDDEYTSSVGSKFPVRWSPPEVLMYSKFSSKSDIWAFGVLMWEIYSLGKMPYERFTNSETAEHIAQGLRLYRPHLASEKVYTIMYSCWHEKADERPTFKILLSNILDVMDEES

Chain of Recombinant purified human JAK3 (P52333 whole entry): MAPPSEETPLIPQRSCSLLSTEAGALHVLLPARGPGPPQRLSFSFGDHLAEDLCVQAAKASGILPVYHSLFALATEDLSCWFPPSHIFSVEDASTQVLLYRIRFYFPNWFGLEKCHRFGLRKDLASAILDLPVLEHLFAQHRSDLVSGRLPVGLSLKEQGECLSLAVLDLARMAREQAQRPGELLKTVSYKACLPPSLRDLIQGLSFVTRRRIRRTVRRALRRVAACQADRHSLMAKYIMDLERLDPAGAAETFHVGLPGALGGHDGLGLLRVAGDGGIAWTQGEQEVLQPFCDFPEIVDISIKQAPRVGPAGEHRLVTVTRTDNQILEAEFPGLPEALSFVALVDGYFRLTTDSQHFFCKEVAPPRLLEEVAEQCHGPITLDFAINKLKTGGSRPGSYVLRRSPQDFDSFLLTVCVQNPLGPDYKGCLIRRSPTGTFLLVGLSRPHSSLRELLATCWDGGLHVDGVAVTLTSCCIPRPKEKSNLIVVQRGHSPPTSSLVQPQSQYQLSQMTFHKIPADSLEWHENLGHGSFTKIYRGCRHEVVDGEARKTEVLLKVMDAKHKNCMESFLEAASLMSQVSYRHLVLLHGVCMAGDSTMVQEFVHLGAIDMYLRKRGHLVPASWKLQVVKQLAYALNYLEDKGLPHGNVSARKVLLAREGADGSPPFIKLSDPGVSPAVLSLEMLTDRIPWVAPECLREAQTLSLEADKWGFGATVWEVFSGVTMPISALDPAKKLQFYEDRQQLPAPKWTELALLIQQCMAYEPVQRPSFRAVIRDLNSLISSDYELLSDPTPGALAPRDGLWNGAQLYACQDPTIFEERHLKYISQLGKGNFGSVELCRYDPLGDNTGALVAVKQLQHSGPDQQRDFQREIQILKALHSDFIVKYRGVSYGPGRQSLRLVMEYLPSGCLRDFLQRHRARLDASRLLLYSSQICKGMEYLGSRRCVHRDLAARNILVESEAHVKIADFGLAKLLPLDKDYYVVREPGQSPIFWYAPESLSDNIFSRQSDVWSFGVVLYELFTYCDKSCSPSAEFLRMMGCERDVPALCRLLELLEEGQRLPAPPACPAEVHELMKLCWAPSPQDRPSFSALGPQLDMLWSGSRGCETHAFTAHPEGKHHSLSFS

Row | pIC50 [1] | pIC50 [2] | pIC50 [3] | Structure (SMILES)
1 | 6.61 | 9.15 | 8.04 | C=CC(=O)N1CC[C@@H](F)[C@@H](Nc2nc(Nc3cnoc3)nc3[nH]cc(C)c23)C1 [Example 11, 1-((3S,4R)-4-fluoro-3-(2-(isoxazol-4-ylamino)-5-methyl-7H-pyrrolo[2,3-d]pyrimidin-4-ylamino)piperidin-1-yl)prop-2-en-1-one]
2 | 6.54 | 9.22 | 8.41 | C=CC(=O)N1CC[C@@H](F)[C@@H](Nc2nc(Nc3cnsc3)nc3[nH]cc(Cl)c23)C1 [Example 5, 1-((3S,4R)-3-(5-chloro-2-(isothiazol-4-ylamino)-7H-pyrrolo[2,3-d]pyrimidin-4-ylamino)-4-fluoropiperidin-1-yl)prop-2-en-1-one]
3 | 6.62 | 9.30 | 8.48 | C=CC(=O)N1CC[C@@H](F)[C@@H](Nc2nc(Nc3cnn(CC)c3)nc3[nH]cc(C)c23)C1 [Example 10, 1-((3S,4R)-3-(2-(1-ethyl-1H-pyrazol-4-ylamino)-5-methyl-7H-pyrrolo[2,3-d]pyrimidin-4-ylamino)-4-fluoropiperidin-1-yl)prop-2-en-1-one]
4 |  | 9.70 | 9.05 | C=CC(=O)N1CC[C@@H](F)[C@@H](Nc2nc(Nc3cnn(CC)c3)nc3[nH]cc(C#N)c23)C1 [Example 6, 4-((3S,4R)-1-acryloyl-4-fluoropiperidin-3-ylamino)-2-(1-ethyl-1H-pyrazol-4-ylamino)-7H-pyrrolo[2,3-d]pyrimidine-5-carbonitrile]
5 | 7.60 | 9.70 | 9.00 | C=CC(=O)N1CC[C@H](F)[C@@H](Nc2nc(Nc3cnn(CC)c3)nc3[nH]cc(Cl)c23)C1 [Example 12, 1-((3S,4S)-3-(5-chloro-2-(1-ethyl-1H-pyrazol-4-ylamino)-7H-pyrrolo[2,3-d]pyrimidin-4-ylamino)-4-fluoropiperidin-1-yl)prop-2-en-1-one]
6 | 7.31 | 10.00 | 9.10 | C=CC(=O)N1CC[C@@H](F)[C@@H](Nc2nc(Nc3cnn(CC(F)F)c3)nc3[nH]cc(Cl)c23)C1 [Example 2, 1-((3S,4R)-3-(5-chloro-2-(1-(2,2-difluoroethyl)-1H-pyrazol-4-ylamino)-7H-pyrrolo[2,3-d]pyrimidin-4-ylamino)-4-fluoropiperidin-1-yl)prop-2-en-1-one]
7 |  | 9.52 | 9.05 | C=CC(=O)N1CC[C@@H](F)[C@@H](Nc2nc(Nc3cnn(C4CC4)c3)nc3[nH]cc(C#N)c23)C1 [Example 8, 4-((3S,4R)-1-acryloyl-4-fluoropiperidin-3-ylamino)-2-(1-cyclopropyl-1H-pyrazol-4-ylamino)-7H-pyrrolo[2,3-d]pyrimidine-5-carbonitrle]
8 |  | 9.70 | 9.10 | C=CC(=O)N1CC[C@@H](F)[C@@H](Nc2nc(Nc3cnn(CC(F)F)c3)nc3[nH]cc(C#N)c23)C1 [Example 7, 4-((3S,4R)-1-acryloyl-4-fluoropiperidin-3-ylamino)-2-(1-(2,2-difluoroethyl)-1H-pyrazol-4-ylamino)-7H-pyrrolo[2,3-d]pyrimidine-5-carbonitrle]
9 | 6.55 | 9.52 | 8.66 | C=CC(=O)N1CC[C@@H](F)[C@@H](Nc2nc(Nc3cnoc3)nc3[nH]cc(C#N)c23)C1 [Example 9, 4-((3S,4R)-1-acryloyl-4-fluoropiperidin-3-ylamino)-2-(isoxazol-4-ylamino)-7H-pyrrolo[2,3-d]pyrimidine-5-carbonitrle]
10 | 7.29 | 9.70 | 8.49 | C=CC(=O)N1CC[C@@H](F)[C@@H](Nc2nc(Nc3cnoc3)nc3[nH]cc(Cl)c23)C1 [Example 4, 1-((3S,4R)-3-(5-chloro-2-(isoxazol-4-ylamino)-7H-pyrrolo[2,3-d]pyrimidin-4-ylamino)-4-fluoropiperidin-1-yl)prop-2-en-1-one]
11 | 7.51 | 10.00 | 9.22 | C=CC(=O)N1CC[C@@H](F)[C@@H](Nc2nc(Nc3cnn(CC)c3)nc3[nH]cc(Cl)c23)C1 [Example 1, 1-((3S,4R)-3-(5-chloro-2-(1-ethyl-1H-pyrazol-4-ylamino)-7H-pyrrolo[2,3-d]pyrimidin-4-ylamino)-4-fluoropiperidin-1-yl)prop-2-en-1-one]
12 |  | 10.00 | 9.10 | C=CC(=O)N1CC[C@@H](F)[C@@H](Nc2nc(Nc3cnn(C4CC4)c3)nc3[nH]cc(Cl)c23)C1 [Example 3, 1-((3S,4R)-3-(5-chloro-2-(1-cyclopropyl-1H-pyrazol-4-ylamino)-7H-pyrrolo[2,3-d]pyrimidin-4-ylamino)-4-fluoropiperidin-1-yl)prop-2-en-1-one]
